We go through 4 molecules from paper PMC9732821, “Neurotrophic Activity and Its Modulation by Zinc Ion of a Dimeric Peptide Mimicking the Brain-Derived Neurotrophic Factor N-Terminal Region” (ACS Chemical Neuroscience, 2022).

One assay relates to AKT. The assay can be described thus: AKT phosphorylation, in cell ELISA in differentiated SH-SY5Y cells. The following applies: 10 min; 150 ng/mL BDNF or 10 μM peptide; three independent replicas in duplicate. It is filed as cell-based, human. How it is done:
ERK and AKT phosphorylation were assessed in a 96-well plate format, performing an in cell ELISA assay as previously described 4. SH-SY5Y or HEK 293T cells were seeded at a density of 5.000 and 80.000 cell/well in 96 multiwell respectively, and the former were differentiated as describe above.
Cells were treated as described for TrkB phosphorylation or reported in the graphs, then washed with 0.1% Triton X-100 in PBS and fixed with 4% paraformaldehyde. Cells were then permeabilized (1% BSA; 0.1% Triton X-100 in PBS) for 1 hour, at the end, cells were incubated overnight at 4°C with anti-phospho ERK (1:500, sc-7383, Santa Cruz) or phosphor AKT (1:500, sc-16646-R-, Santa Cruz) antibodies. Next day, after the incubation with HRP-conjugated secondary antibody (anti-mouse # 31430, Invitrogen; anti-rabbit A0545, Sigma-Aldrich) the TMB substrate was added and the absorbance was read at 450 nm. Cells were incubated with only the secondary antibody to obtain the aspecific binding (Blanks). The absorbances were normalized to the relative number of cells in each well that was determined using Crystal Violet staining.
SH-SY5Y Immunofluorescence analysis
SH-SY5Y cells were seeded on a 24-well plate (5.000 cell/well) and differentiated with retinoic acid as describe above. Cells were treated for 60’ in an unsupplemented medium with BDNF (150 ng/ml) or d-bdnf (10 µM) alone or in combination. Samples were then fixed (4% PFA, 5% sucrose/PBS, 15 min) and subjected to a non-permeabilizing immunofluorescence assay. Briefly, cells were incubated with the blocking solution (5% BSA/PBS) for 1 h at room temperature and incubated overnight at 4 °C with chicken anti-BDNF (1:100, G164A Promega) antibody diluted in 2.5% BSA/PBS. The next morning samples were incubated with an Alexa568-conjugated anti-chicken secondary antibody (1:500, Thermofisher) in 2.5% BSA/PBS for 2h at room temperature. Coverslips were mounted with Fluoroshield-DAPI (Sigma-Aldrich) and imaged with a laser scanning confocal microscope (Nikon A1, Eclipse Ti), using a 60× oil objective (NA 1 .40) and pinhole set to 1 AU. Images were acquired […]
nm laser (emission window 545-645 nm). BDNF fluorescence intensity was analysed using FIJI ImageJ software. Briefly, the background intensity was subtracted from all red channel fields and an image threshold was applied to calculate the mean fluorescence intensity of the cells only. Results shown constitute the pool of fields stemming from two replicates.
ReNCell cell culture, differentiation and immunofluorescence analysis

The test system of another assay is human TrkB. The assay can be described thus: TrkB phosphorylation, immunoprecipitation and western blot in SH-SY5Y cells transfected with hTrkB-EGFP. The following applies: 10 μM peptide, 10 min stimulation, normalized to ctrl; four replicas (peptides); one-way ANOVA with Bonferroni. It is filed as cell-based. From the text: The possibility of mimicking the function of the full-length BDNF protein by using a linear peptide fragment encompassing the first 12 amino acids of the mature NT N-terminal was already postulated.[31] Here, we named this sequence as m-bdnf (Figure 1A) and performed a systematic comparison between the performance of the full-length human BDNF produced recombinantly in Escherichia coli([32]) and (i) m-bdnf, (ii) a dimeric peptide displaying two copies of the m-bdnf sequence covalently bound by a disulfide bridge (d-bdnf), and (iii) a monomeric peptide displaying the scrambled sequence of m-bdnf (s-bdnf). We first investigated the ability of these peptides to activate the TrkB receptor. To this purpose, we expressed a recombinant GFP fusion of human TrkB (Figure 1A) in SH-SY5Y cells. Then, cells were stimulated with BDNF or the related peptides. […] Then, the same cell-based assays for ERK phosphorylation were used to better elucidate the agonist properties of d-bdnf (Figure 1D). […] Specifically, an EC50 concentration of BDNF (1 nM) or of d-bdnf (10 μM) was used in combination with the increasing concentration of d-bdnf and BDNF, respectively, and the increase of ERK phosphorylation was assessed. […] Of note, we also performed a non-permeabilizing immunofluorescence analysis to quantify the membrane-bound BDNF in differentiated SH-SY5Y cells in the absence or presence of BDNF and d-bdnf (Figure S1C,D). […] The same increment was not observed upon treatment with the d-bdnf peptide, while instead we measured a slight (∼18%) decrease of the signal possibly due to the ability of the peptide to displace endogenous BDNF at the tested dose (10 μM). […]
Figure 1 Activation of the TrkB receptor by BDNF and its mimetic peptide ligands. […] (C) Scatter dot plot of ERK (left) and AKT (right) phosphorylation levels detected in differentiated SH-SY5Y cells, after stimulation with the same treatments as in (B). […] (G) Bar graph of mean ± SD ‘B-1’ values retrieved from N&B analysis for all the different conditions measured. […]

Consider “HSDPARRGELSV-NH2 [m-bdnf, linear peptide fragment encompassing the first 12 amino acids of the mature NT N-terminal]”, for which the “AKT phosphorylation increase vs unstimulated control” value (shortened to “AKT phosphorylation increase”) in the assay with AKT was “only BDNF and d-bdnf were able to induce a significant ERK and AKT phosphorylation increase”. The “TrkB phosphorylation (p-Tyr/TrkB band density)” value in the assay with human TrkB was “only d-bdnf was able to promote a significant TrkB phosphorylation”. On to “HSDPARRGELSVC-C-VSLEGRRAPDSH (disulfide) [d-bdnf]”, for which the “AKT phosphorylation increase” value with AKT was “significant ERK and AKT phosphorylation increase”. Also, the “TrkB phosphorylation (p-Tyr/TrkB band density)” value in the assay with human TrkB is reported as “significant TrkB phosphorylation (p < 0.05)”. For the molecule SRAGPHLRDVSE-NH2 [s-bdnf], in the assay on AKT, the “AKT phosphorylation increase” value is “only BDNF and d-bdnf were able to induce a significant ERK and AKT phosphorylation increase”. Moreover, the “TrkB phosphorylation (p-Tyr/TrkB band density)” value with human TrkB is listed as “only d-bdnf was able to promote a significant TrkB phosphorylation”.

B1: brain-derived neurotrophic factor (protein, UniProt P23560 1-247, looked up)
chain: MTILFLTMVISYFGCMKAAPMKEANIRGQGGLAYPGVRTHGTLESVNGPKAGSRGLTSLADTFEHVIEELLDEDQKVRPNEENNKDADLYTSRVMLSSQVPLEPPLLFLLEEYKNYLDAANMSMRVRRHSDPARRGELSVCDSISEWVTAADKKTAVDMSGGTVTVLEKVPVSKGQLKQYFYETKCNPMGYTKEGCRGIDKRHWNSQCRTTQSYVRALTMDSKKRIGWRFIRIDTSCVCTLTIKRGR
modifications: full-length
notes: full-length human BDNF produced recombinantly in Escherichia coli
Regarding B1, the “AKT phosphorylation increase” value in the assay with AKT is “significant ERK and AKT phosphorylation increase”.
